In paper PMC8085013, “Mixture interactions at mammalian olfactory receptors are dependent on the cellular environment” (Scientific Reports, 2021):
Each block holds one molecule with its values, some of them ahead of it.

Assays:
[1] = test system: endogenous adrenergic receptors; test: Isoproterenol saturating control in the cAMP/CNGCmut calcium influx assay in HEK293 cells; format: cell-based; settings: 10 µM, applied for 5-min
Description: Calcium imaging was performed as described previously. HEK293 cells were incubated (30 min/37 °C) in a DMEM containing 6–8 µM Fluo-4/AM (Invitrogen) or Fluo-2/AM (TefLabs) containing 0.04% Pluronic F127. Activity of cells expressing untagged ORs from the bicistronic pTR plasmid was reported by expressed GCaMP3. Odorant solutions were applied sequentially to the cells for 5 s with a 3 min interval between each application to allow recovery from desensitization resulting from previous application of odorants. In the case of prolonged 10-min stimulation, the cells were allowed to recover for at least 10 min before adding a binary mix or isoproterenol alone, activating endogenous production of cAMP. Cells growing either on a 35-mm plastic dish or on a round poly-L-lysine coated cover glass were transferred to the stage of an inverted microscope (Axiovert 200, Zeiss) equipped with a 10x/0.5NA Fluar objective. Odorants were applied to the cells as a 5-s long pulse using a computer-controlled fast perfusion system (RSC-200, BioLogic, France) ensuring precise delivery of the stimulus with a minimal time lag. The perfusion system was controlled by Clampex 9.2 or 10.2 software (Molecular Devices). In some experiments, cells were pre-incubated with a putative antagonist for 30-s before applying a 5-s pulse of agonist. […]

mouse Olfr73 [2] = target: T1, mouse Olfr73 (Mus musculus, UniProt Q920P2); test: GCaMP3 calcium imaging of mouse OSNs ectopically expressing Olfr73 (rAAV2/5), 5-s odorant pulse; format: cell-based; settings: 5-s pulse
T1 sequence (Q920P2 1-313): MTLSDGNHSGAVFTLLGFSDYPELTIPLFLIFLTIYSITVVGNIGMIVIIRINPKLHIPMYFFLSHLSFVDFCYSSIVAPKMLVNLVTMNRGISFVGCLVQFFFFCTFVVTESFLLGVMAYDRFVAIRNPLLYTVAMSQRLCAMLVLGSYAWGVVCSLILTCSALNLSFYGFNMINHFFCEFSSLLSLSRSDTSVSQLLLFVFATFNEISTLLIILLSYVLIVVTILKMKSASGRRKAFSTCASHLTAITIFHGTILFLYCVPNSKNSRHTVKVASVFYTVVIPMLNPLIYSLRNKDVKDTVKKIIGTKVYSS

mouse Olfr73 [3] = target: T1, mouse Olfr73; test: GCaMP3 calcium imaging of rat OSNs ectopically expressing Olfr73 (rAAV2/5), 5-s odorant pulse; format: cell-based; settings: 5-s pulse
mouse Olfr73 [4] = target: T1, mouse Olfr73; set-up: method as in PMID 25149566; settings: starred cells, previously published in vitro work under the same conditions ref 25; cited from earlier work
mouse Olfr73 [5] = target: T1, mouse Olfr73; set-up: method as in PMID 25149566; settings: starred cells, previously published in vitro work under the same conditions ref 25; cited from earlier work; remark: listed apart in the source
Olfr599 [6] = target: T2, Olfr599 (Mus musculus, UniProt Q8VG01); test: Calcium imaging of HEK293 cells expressing Olfr599; format: cell-based
Description: Heterologous expression of mouse ORs was based on the previously published method. HEK293 (ATCC CRL-1537) or HEK293T (ATCC CRL-3216) cells were grown in a high glucose […] (DMEM) supplemented with 10% FBS, penicillin and streptomycin, and 2 mM L-glutamine and maintained at 37 °C (5% CO2). A rhodopsin-tagged mouse olfactory receptor Olfr73 and Olfr599 (provided by Dr. Matsunami, Duke University) was co-expressed with RTP1s, a short version of the Receptor Transporting Protein 1 ensuring proper surface trafficking of the receptor (provided by Dr. Touhara, University of Tokyo). To reconstitute different G-protein coupled signaling pathways, one of the three G-proteins was co-expressed along with the OR and RTP1s, promiscuous mouse Gα15 (Thermo Scientific Open Biosystems), heterotrimeric Gαq11/ß1/γ13, both coupled to endogenous PLC/calcium release, and human Gαolf (Missouri S&T cDNA Resource Center). To assay activity-dependent accumulation of cAMP generated by activation of the Gs/Golf pathway, the cells were additionally co-transfected with a mutated A2 subunit of the rat olfactory cyclic nucleotide gated channel (CNGCmut). Two mutations C460W and E583M ensured high sensitivity and selectivity of the channel to cAMP (a gift from Dr. Rich, University of South Alabama). Transfections were performed using Calfectin (SignaGen). […]

Olfr599 [7] = target: T2, Olfr599; test: GCaMP3 calcium imaging of mouse OSNs ectopically expressing Olfr599 (rAAV2/5); format: cell-based; settings: each at 100 µM, 5-s pulse
Description: Animals 4–6 weeks of age were used for experiments 7–21 days post-inoculation with rAAV2/5 encoding OR-furin2A-GCaMP3. Calcium imaging was performed as detailed previously. Tissue was prepared and mounted with the apical surface facing up. The chamber was transferred to the stage of an upright microscope (Zeiss Axioskop-2F) equipped with a 40×/0.75NA long distance water-immersion objective lens. Experimental solutions were applied for a duration of 5 s directly to the field of view through a 100 µm diameter needle made of fused silica and connected to a 9-channel Teflon manifold. Solution application was controlled by electronic valves (VC-6, Warner Instruments). The calcium response is presented as an increase of GCaMP3 fluorescence originating from the knob and underlying dendrite. The tissue was illuminated using a standard eGFP filter cube BP490 nm/ 535 nm (Omega Optical, USA) and the emitted light was collected at 530 nm (BP 530/20 nm, Omega Optical, USA) by a 12-bit cooled CCD camera (ORCA R2, Hamamatsu, Japan). […] Before processing, fluorescence intensity was corrected for the background. Each knob was assigned a region of interest (ROI) and changes in fluorescence intensity within each ROI were analyzed and expressed as the peak fractional change in fluorescent light intensity (F-Fo)/Fo where Fo is the baseline fluorescence before application of experimental solutions.

T2 sequence (Q8VG01 entry or part of it): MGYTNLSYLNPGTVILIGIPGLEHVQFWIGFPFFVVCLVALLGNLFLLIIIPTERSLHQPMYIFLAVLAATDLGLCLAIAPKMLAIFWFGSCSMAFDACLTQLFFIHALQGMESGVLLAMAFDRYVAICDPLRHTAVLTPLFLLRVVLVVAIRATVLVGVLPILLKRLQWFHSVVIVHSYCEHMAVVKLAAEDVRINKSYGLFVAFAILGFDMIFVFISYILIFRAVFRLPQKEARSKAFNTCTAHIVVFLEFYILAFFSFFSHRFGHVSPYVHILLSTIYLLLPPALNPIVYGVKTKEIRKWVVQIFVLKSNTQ

Molecule: CC(C)NCC(O)c1ccc(O)c(O)c1 (stereo not shown) [Isoproterenol]
cAMP-dependent response [1]: robust sustained response

Agonism/antagonism, OSN Ca2+ Mouse (mouse Olfr73 [2]; strong agonist 100 µM, putative antagonist 1 mM, single or as pair): Agonist
Response relative to the response to eugenol (mouse Olfr73 [2]; ligand 1 mM, Olfr73-OSNs): 50%
Response to ligand applied alone (mouse Olfr73 [2]; mouse Olfr73-OSNs): weak agonist
Agonism/antagonism, OSN Ca2+ Rat (mouse Olfr73 [3]; strong agonist 100 µM, putative antagonist 1 mM): Agonist
Response to ligand applied alone (mouse Olfr73 [3]; rat Olfr73-OSNs): lower than that to eugenol
Molecule: C=C(C)[C@@H]1CCC2=CC(=O)C[C@@H](C)[C@]2(C)C1 [Nootkatone, nootkatone]
Agonism/antagonism, HEK293 short odor Ca2+ Gs/olf (mouse Olfr73 [4]): Inactive*
Agonism/antagonism, HEK293 short odor Ca2+ G15 (mouse Olfr73 [5]): Inactive*

Molecule: CCCCCCCC(=O)O [Octanoic acid]
Response to ligand applied alone (Olfr599 [6]; HEK293, Olfr599 with Gαq11/ß1/γ13, 100 µM): robust activation
EC50 (Olfr599 [6]; HEK293 cells, Olfr599): 70 µM
Response to ligand applied alone (Olfr599 [7]): evoked reliable neuronal responses

Molecule: isoeugenol
Agonism/antagonism, HEK293 short odor Ca2+ Gs/olf (mouse Olfr73 [4]): Agonist*
Agonism/antagonism, HEK293 short odor Ca2+ G15 (mouse Olfr73 [5]): Agonist*
